Each compound was assayed on Setaria viridis (SETVI) (assay: Herbicidal pre-emergence action (A), 1280 g/ha). Settings: visual grading after ca. 3 weeks vs untreated controls.
Assay type: in vivo
How it was run: (§1)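 Pre-emergence soil-surface spray, 600 l/ha water, 0.5% additive, WP or EC formulation. Sandy loam, double sowing per pot, greenhouse under optimum growth. Visual % damage at ~3 wk vs untreated; 100% = plants died off.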
For `Cc1cscc1-c1nc2ncsc2cc1C` [Example I-193], the “herbicidal effect SETVI” value was 100%.

What follows are compounds tested on Stellaria media (STEME) (assay: Herbicidal pre-emergence action (A), 1280 g/ha). Settings: visual grading after ca. 3 weeks vs untreated controls.
Assay type: in vivo
How it was run: as §1
In the case of `Cc1cscc1-c1nc2ncsc2cc1C` [Example I-193], the “herbicidal effect STEME” value is reported as 100%.

These compounds were tested on Echinochloa crus-galli (ECHCG) (assay: Herbicidal pre-emergence action (A), 1280 g/ha). Settings: visual grading after ca. 3 weeks vs untreated controls, 100% = plants have died off, 0% = as control plants.
Assay type: in vivo
How it was run: as §1
For `Cc1cscc1-c1nc2ncsc2cc1C` [Example I-193], the “ECHCG, herbicidal effect in percent (%)” value was 100%.

These compounds were tested on Amaranthus retroflexus (AMARE) (assay: Herbicidal pre-emergence action (A), 1280 g/ha). Settings: visual grading after ca. 3 weeks vs untreated controls.
Assay type: in vivo
How it was run: as §1
In the case of `Cc1cscc1-c1nc2ncsc2cc1C` [Example I-193], the “herbicidal effect AMARE” value is reported as 90%.

These compounds were tested on Matricaria inodora (MATIN) (assay: Herbicidal pre-emergence action (A), 1280 g/ha). Settings: visual grading after ca. 3 weeks vs untreated controls.
Assay type: in vivo
How it was run: as §1
For `Cc1cscc1-c1nc2ncsc2cc1C` [Example I-193], the “herbicidal effect MATIN” value was 90%.

The compounds below were run on Lolium rigidum (LOLRI) (assay: Herbicidal pre-emergence action (A), 1280 g/ha). Settings: visual grading after ca. 3 weeks vs untreated controls, 100% = plants have died off, 0% = as control plants.
Assay type: in vivo
How it was run: as §1
For `Cc1cscc1-c1nc2ncsc2cc1C` [Example I-193], the “LOLRI, herbicidal effect in percent (%)” value was 100%.

What follows are compounds tested on Veronica persica (VERPE) (assay: Herbicidal pre-emergence action (A), 1280 g/ha). Settings: visual grading after ca. 3 weeks vs untreated controls.
Assay type: in vivo
How it was run: as §1
In the case of `Cc1cscc1-c1nc2ncsc2cc1C` [Example I-193], the “herbicidal effect VERPE” value is reported as 90%.

These compounds were tested on Kochia scoparia (KCHSC; Bassia scoparia) (assay: Herbicidal pre-emergence action (A), 1280 g/ha). Settings: visual grading after ca. 3 weeks vs untreated controls.
Assay type: in vivo
How it was run: as §1
With `Cc1cscc1-c1nc2ncsc2cc1C` [Example I-193] the “herbicidal effect KCHSC” value was 90%.

The compounds below were run on Alopecurus myosuroides (ALOMY) (assay: Herbicidal pre-emergence action (A), 1280 g/ha). Settings: visual grading after ca. 3 weeks vs untreated controls, 100% = plants have died off, 0% = as control plants.
Assay type: in vivo
How it was run: as §1
For `Cc1cscc1-c1nc2ncsc2cc1C` [Example I-193], the “ALOMY, herbicidal effect in percent (%)” value was 90%.

The compounds below were run on Poa annua (POAAN) (assay: Herbicidal pre-emergence action (A), 1280 g/ha). Settings: visual grading after ca. 3 weeks vs untreated controls, 100% = plants have died off, 0% = as control plants.
Assay type: in vivo
How it was run: as §1
With `Cc1cscc1-c1nc2ncsc2cc1C` [Example I-193] the “POAAN, herbicidal effect in percent (%)” value was 100%.

What follows are compounds tested on Stellaria media (STEME) (assay: Herbicidal post-emergence action (B), 1280 g/ha). Settings: not given.
Assay type: in vivo
How it was run: (§2)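 Percent activity is a visual score taken about 3 weeks after treatment, relative to untreated plants, where 100% means the plants died and 0% means no difference from controls. Plants were sprayed on green parts at the one-leaf stage with an aqueous suspension or emulsion containing 0.5% additive at 600 L/ha.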
In the case of `Cc1cscc1-c1nc2ncsc2cc1C` [Example I-193], the “herbicidal effect STEME” value is reported as 90%.

What follows are compounds tested on Echinochloa crus-galli (ECHCG) (assay: Herbicidal post-emergence action (B), 1280 g/ha). Settings: rated visually after about 3 weeks vs untreated controls.
Assay type: in vivo
How it was run: as §2
With `Cc1cscc1-c1nc2ncsc2cc1C` [Example I-193] the “herbicidal activity ECHCG” value was 100%.

The compounds below were run on Amaranthus retroflexus (AMARE) (assay: Herbicidal post-emergence action (B), 1280 g/ha). Settings: rated visually after about 3 weeks vs untreated controls.
Assay type: in vivo
How it was run: as §2
With `Cc1cscc1-c1nc2ncsc2cc1C` [Example I-193] the “herbicidal activity AMARE” value was 100%.

These compounds were tested on Veronica persica (VERPE) (assay: Herbicidal post-emergence action (B), 1280 g/ha). Settings: not given.
Assay type: in vivo
How it was run: as §2
With `Cc1cscc1-c1nc2ncsc2cc1C` [Example I-193] the “herbicidal effect VERPE” value was 90%.

The compounds below were run on Kochia scoparia (KCHSC; Bassia scoparia) (assay: Herbicidal post-emergence action (B), 1280 g/ha). Settings: not given.
Assay type: in vivo
How it was run: as §2
For `Cc1cscc1-c1nc2ncsc2cc1C` [Example I-193], the “herbicidal effect KCHSC” value was 90%.

Each compound was assayed on Abutilon theophrasti (ABUTH) (assay: Herbicidal post-emergence action (B), 1280 g/ha). Settings: rated visually after about 3 weeks vs untreated controls.
Assay type: in vivo
How it was run: as §2
In the case of `Cc1cscc1-c1nc2ncsc2cc1C` [Example I-193], the “herbicidal activity ABUTH” value is reported as 90%.

Each compound was assayed on Poa annua (POAAN) (assay: Herbicidal post-emergence action (B), 1280 g/ha). Settings: rated visually after about 3 weeks vs untreated controls.
Assay type: in vivo
How it was run: as §2
For `Cc1cscc1-c1nc2ncsc2cc1C` [Example I-193], the “herbicidal activity POAAN” value was 100%.

The compounds below were run on Setaria viridis (SETVI) (assay: Herbicidal post-emergence action (D), 320 g/ha). Settings: ca. 3 weeks.
Assay type: in vivo
How it was run: (§3)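 Post-emergence greenhouse test. Sandy loam; spray at single-leaf stage (2–3 wk after sowing); WP or EC in water + 0.5% additive, 600 l/ha. Visual rating ~3 wk post-spray, % effect vs untreated (0 = control, 100 = dead).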
`Fc1ccccc1-c1nc2ncsc2cc1Br` [Example I-012] was tested, and the “herbicidal effect SETVI” value was 90%.
With `Cc1cscc1-c1nc2ncsc2cc1C` [Example I-193] the “herbicidal effect SETVI” value was 80%.

The compounds below were run on Polygonum convolvulus (POLCO) (assay: Herbicidal post-emergence action (D), 320 g/ha). Settings: ca. 3 weeks.
Assay type: in vivo
How it was run: as §3
`Fc1ccccc1-c1nc2ncsc2cc1Br` [Example I-012] was tested, and the “herbicidal effect POLCO” value was 90%.

Each compound was assayed on Echinochloa crus-galli (ECHCG) (assay: Herbicidal post-emergence action (D), 320 g/ha). Settings: ca. 3 weeks.
Assay type: in vivo
How it was run: as §3
With `Fc1ccccc1-c1nc2ncsc2cc1Br` [Example I-012] the “herbicidal effect ECHCG” value was 80%.
In the case of `Cc1cscc1-c1nc2ncsc2cc1C` [Example I-193], the “herbicidal effect ECHCG” value is reported as 80%.

What follows are compounds tested on Amaranthus retroflexus (AMARE) (assay: Herbicidal post-emergence action (D), 320 g/ha). Settings: ca. 3 weeks.
Assay type: in vivo
How it was run: as §3
`Fc1ccccc1-c1nc2ncsc2cc1Br` [Example I-012] was tested, and the “herbicidal effect AMARE” value was 90%.
`Cc1cscc1-c1nc2ncsc2cc1C` [Example I-193] was tested, and the “herbicidal effect AMARE” value was 80%.

What follows are compounds tested on Alopecurus myosuroides (ALOMY) (assay: Herbicidal post-emergence action (D), 320 g/ha). Settings: ca. 3 weeks.
Assay type: in vivo
How it was run: as §3
With `Fc1ccccc1-c1nc2ncsc2cc1Br` [Example I-012] the “herbicidal effect ALOMY” value was 90%.
`Cc1cscc1-c1nc2ncsc2cc1C` [Example I-193] was tested, and the “herbicidal effect ALOMY” value was 90%.

The compounds below were run on Setaria viridis (SETVI) (assay: Herbicidal pre-emergence action (C), 320 g/ha). Settings: ca. 3 weeks.
Assay type: in vivo
How it was run: (§4)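 Pre-emergence soil-surface spray: WP/EC formulation in water plus 0.5% additive, 600 l/ha, applied over freshly sown, soil-covered seeds in sandy loam. Greenhouse, optimum conditions, ~3 weeks. Visual % damage vs untreated (100% = dead).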
With `Fc1ccccc1-c1nc2ncsc2cc1Br` [Example I-012] the “herbicidal effect SETVI” value was 100%.
With `Cc1cscc1-c1nc2ncsc2cc1C` [Example I-193] the “herbicidal effect SETVI” value was 100%.

What follows are compounds tested on Polygonum convolvulus (POLCO) (assay: Herbicidal pre-emergence action (C), 320 g/ha). Settings: ca. 3 weeks.
Assay type: in vivo
How it was run: as §4
With `Fc1ccccc1-c1nc2ncsc2cc1Br` [Example I-012] the “herbicidal effect POLCO” value was 80%.
`Cc1cscc1-c1nc2ncsc2cc1C` [Example I-193] was tested, and the “herbicidal effect POLCO” value was 80%.

Each compound was assayed on Echinochloa crus-galli (ECHCG) (assay: Herbicidal pre-emergence action (C), 320 g/ha). Settings: ca. 3 weeks.
Assay type: in vivo
How it was run: as §4
In the case of `Fc1ccccc1-c1nc2ncsc2cc1Br` [Example I-012], the “herbicidal effect ECHCG” value is reported as 100%.
With `Cc1cscc1-c1nc2ncsc2cc1C` [Example I-193] the “herbicidal effect ECHCG” value was 100%.

Each compound was assayed on Amaranthus retroflexus (AMARE) (assay: Herbicidal pre-emergence action (C), 320 g/ha). Settings: ca. 3 weeks.
Assay type: in vivo
How it was run: as §4
For `Fc1ccccc1-c1nc2ncsc2cc1Br` [Example I-012], the “herbicidal effect AMARE” value was 90%.
For `Cc1cscc1-c1nc2ncsc2cc1C` [Example I-193], the “herbicidal effect AMARE” value was 90%.

What follows are compounds tested on Matricaria inodora (MATIN) (assay: Herbicidal pre-emergence action (C), 320 g/ha). Settings: ca. 3 weeks.
Assay type: in vivo
How it was run: as §4
In the case of `Fc1ccccc1-c1nc2ncsc2cc1Br` [Example I-012], the “herbicidal effect MATIN” value is reported as 90%.
With `Cc1cscc1-c1nc2ncsc2cc1C` [Example I-193] the “herbicidal effect MATIN” value was 80%.

Each compound was assayed on Lolium rigidum (LOLRI) (assay: Herbicidal pre-emergence action (C), 320 g/ha). Settings: ca. 3 weeks.
Assay type: in vivo
How it was run: as §4
For `Fc1ccccc1-c1nc2ncsc2cc1Br` [Example I-012], the “herbicidal effect LOLRI” value was 100%.
`Cc1cscc1-c1nc2ncsc2cc1C` [Example I-193] was tested, and the “herbicidal effect LOLRI” value was 100%.

These compounds were tested on Veronica persica (VERPE) (assay: Herbicidal pre-emergence action (C), 320 g/ha). Settings: ca. 3 weeks.
Assay type: in vivo
How it was run: as §4
In the case of `Fc1ccccc1-c1nc2ncsc2cc1Br` [Example I-012], the “herbicidal effect VERPE” value is reported as 80%.
For `Cc1cscc1-c1nc2ncsc2cc1C` [Example I-193], the “herbicidal effect VERPE” value was 80%.

The compounds below were run on Abutilon theophrasti (ABUTH) (assay: Herbicidal pre-emergence action (C), 320 g/ha). Settings: ca. 3 weeks.
Assay type: in vivo
How it was run: as §4
In the case of `Fc1ccccc1-c1nc2ncsc2cc1Br` [Example I-012], the “herbicidal effect ABUTH” value is reported as 80%.
With `Cc1cscc1-c1nc2ncsc2cc1C` [Example I-193] the “herbicidal effect ABUTH” value was 80%.

The compounds below were run on Alopecurus myosuroides (ALOMY) (assay: Herbicidal pre-emergence action (C), 320 g/ha). Settings: ca. 3 weeks.
Assay type: in vivo
How it was run: as §4
With `Fc1ccccc1-c1nc2ncsc2cc1Br` [Example I-012] the “herbicidal effect ALOMY” value was 100%.
In the case of `Cc1cscc1-c1nc2ncsc2cc1C` [Example I-193], the “herbicidal effect ALOMY” value is reported as 100%.

The compounds below were run on Avena fatua (assay: Herbicidal pre-emergence action (C), 320 g/ha). Settings: ca. 3 weeks.
Assay type: in vivo
Source text: Seeds of mono- and dicotyledonous weed plants and crop plants were sown, in plastic or organic planting pots, in sandy loam and covered with soil. The compounds according to the invention, formulated in the form of wettable powders (WP) or as emulsifiable concentrates (EC), were applied to the surface of the covering soil as aqueous suspension or emulsion, with the addition of 0.5% of an additive, at an application rate of 600 l of water/ha (converted).
Following treatment, the pots were placed in a greenhouse and kept under optimum growth conditions for the test plants. The visual grading of the damage to the test plants was carried out after ca. 3 weeks in comparison to untreated controls (herbicidal effect in percent (%): 100% effect=plants have died off, 0% effect=as control plants).
Tables C1 to C13 below show the effects of selected compounds of the general formula (I) according to table 1 on various harmful plants and an application rate corresponding to 320 g/ha obtained by the experimental procedure mentioned above.
`Fc1ccccc1-c1nc2ncsc2cc1Br` [Example I-012] was tested, and the “herbicidal effect AVEFA” value was 100%.
`Cc1cscc1-c1nc2ncsc2cc1C` [Example I-193] was tested, and the “herbicidal effect AVEFA” value was 80%.

— patent US20230151025A1, “SUBSTITUTED THIAZOLOPYRIDINES, SALTS THEREOF AND THEIR USE AS HERBICIDALLY ACTIVE SUBSTANCES” (Bayer Aktiengesellschaft, priority 2020, published 2023)
